Measurements published in the supplement of paper PMC10307832.

How the values were obtained:
Experiment in all cases: relative viability (nuclei count vs DMSO), 5 days (fraction); higher = more cells survive
[1] = compound: Cc1nc(C(=O)NCC(=O)O)c(O)c2ccc(Oc3ccccc3)cc12 [FG-4592] + CS(=O)(=O)N1CCN(Cc2cc3nc(-c4cccc5[nH]ncc45)nc(N4CCOCC4)c3s2)CC1 [Pictilisib] (partner 1 µM)
Procedure, shortened: (§1)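 Lung cancer cell lines in 1536-well plates got either a single drug or a fixed anchor-drug dose together with five library-drug doses (not always all listed) in √10 steps, by pin tool, on the day after seeding. Nuclei were counted after 5 days, and relative viability is the treated-to-vehicle ratio of nuclei counts. Values are medians of duplicate plates.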

[2] = compound: CC1=CC(=C(N1C2=CC=C(C=C2)Cl)C)C(=O)CN3CCCCC3 [IU1-47] + COc1cc2c(Oc3ccc(NC(=O)C4(C(=O)Nc5ccc(F)cc5)CC4)cc3F)ccnc2cc1OCCCN1CCOCC1 [Foretinib] (partner 0.25 µM)
Procedure, shortened: as §1

[3] = compound: CC1=CC(=C(N1C2=CC=C(C=C2)Cl)C)C(=O)CN3CCCCC3 [IU1-47] + C[C@@H](Oc1cc(-c2cnn(C3CCNCC3)c2)cnc1N)c1c(Cl)ccc(F)c1Cl [Crizotinib] (partner 1 µM)
Procedure, shortened: as §1

[4] = compound: CC1=CC(=C(N1C2=CC=C(C=C2)Cl)C)C(=O)CN3CCCCC3 [IU1-47] + C[C@]1(O)C[C@@H](c2nc(-c3ccc4ccc(-c5ccccc5)nc4c3)c3c(N)nccn32)C1 [Linsitinib] (partner 1 µM)
Procedure, shortened: as §1

Cell Line | relative viability ([1]; first compound 0.08 µM) | relative viability ([1]; first compound 0.253 µM) | relative viability ([1]; first compound 0.8 µM) | relative viability ([1]; first compound 2.53 µM) | relative viability ([1]; first compound 8 µM) | relative viability ([2]; first compound 0.08 µM) | relative viability ([2]; first compound 0.253 µM) | relative viability ([2]; first compound 0.8 µM) | relative viability ([2]; first compound 2.53 µM) | relative viability ([2]; first compound 8 µM) | relative viability ([3]; first compound 0.08 µM) | relative viability ([3]; first compound 0.253 µM) | relative viability ([3]; first compound 0.8 µM) | relative viability ([3]; first compound 2.53 µM) | relative viability ([3]; first compound 8 µM) | relative viability ([4]; first compound 0.08 µM) | relative viability ([4]; first compound 0.253 µM) | relative viability ([4]; first compound 0.8 µM) | relative viability ([4]; first compound 2.53 µM) | relative viability ([4]; first compound 8 µM)
NCI-H1650 | 0.428 | 0.549 | 0.44 | 0.586 | 0.617 | 1.05 | 1.17 | 1.1 | 1.4 | 0.886 | 0.978 | 0.969 | 0.802 | 1.16 | 0.857 | – | – | – | – | –
BEN | 0.442 | 0.485 | 0.429 | 0.561 | 0.459 | 0.618 | 0.676 | 0.646 | – | 0.61 | 0.841 | 0.99 | 1.03 | 0.816 | 0.752 | 1.02 | 0.934 | 1.08 | 0.915 | 0.863
EMC-BAC-2 | 0.439 | 0.476 | 0.396 | 0.564 | 0.445 | 1.07 | 1.11 | 0.984 | 1.02 | 1.05 | 0.802 | 0.863 | 0.752 | 0.835 | 0.75 | 0.857 | 0.829 | 0.841 | 0.864 | 0.774
LU99A | 0.311 | 0.28 | 0.291 | 0.316 | 0.339 | 0.768 | 0.759 | 0.859 | 0.932 | 0.702 | 0.503 | 0.538 | 0.538 | 0.739 | 0.617 | 0.538 | 0.511 | 0.656 | 0.602 | 0.54
ABC-1 | 0.778 | – | 0.55 | 0.7 | 0.539 | 1.1 | 0.985 | 1.06 | – | 1.07 | 1.12 | 1.13 | 0.796 | – | 0.8 | 0.887 | 0.768 | 0.986 | – | 0.777
NCI-H2170 | 0.348 | 0.28 | 0.274 | 0.359 | 0.275 | 1.14 | 1.08 | 1.03 | 0.994 | 1.24 | 1.42 | 1.44 | 1.26 | 1.11 | 1.25 | – | – | – | – | –
NCI-H1299 | 0.913 | 0.645 | 0.915 | 0.724 | 0.752 | 1.1 | 1.11 | 1.09 | 1.18 | 1.01 | 0.965 | 0.93 | 0.977 | 0.972 | 0.834 | 0.943 | 0.951 | 1.05 | 1.01 | 0.975
EBC-1 | 0.401 | 0.371 | 0.417 | 0.387 | 0.335 | 0.0995 | 0.107 | 0.0951 | 0.111 | 0.102 | 0.239 | 0.202 | 0.209 | 0.172 | 0.229 | 0.664 | 0.888 | 0.925 | 0.964 | 0.881
NCI-H2347 | 0.0319 | 0.633 | 0.434 | 0.567 | 0.562 | 0.707 | 0.605 | 0.843 | 1.17 | 1.1 | 0.575 | 0.746 | 0.727 | 0.674 | 0.762 | 1.06 | 0.997 | 0.973 | 0.946 | 0.954
